Patent US8680012B2, “4-phenyl-pyrane-3,5-diones,4-phenyl-thiopyrane-3,6-diones and cyclohexanetriones as novel herbicides” (Syngenta Crop Protection LLC, priority 2006, dated 2014)

Assays:
Assay type in all cases: in vivo
[1] = system: Alopecurus myosuroides (ALOMY); assay: Example B pre-emergence herbicidal activity, glasshouse pot test; settings: 312 h, rate 250 g/ha, evaluated after 13 days, read-out: Pre-emergence activity ALOMY (100=total damage to plant; 0=no damage to plant)
Protocol: (§1) Seeds of a variety of test species were sown in standard soil in pots. After cultivation for one day (pre-emergence) or after 8 days cultivation (post-emergence) under controlled conditions in a glasshouse (at 24/16° C., day/night; 14 hours light; 65% humidity), the plants were sprayed with an aqueous spray solution derived from the formulation of the technical active ingredient in acetone/water (50:50) solution containing 0.5% Tween 20 (polyoxyethelyene sorbitan monolaurate, CAS RN 9005-64-5). The test plants were then grown in a glasshouse under controlled conditions in a glasshouse (at 24/16° C., day/night; 14 hours light; 65% humidity) and watered twice daily. After 13 days for pre and post-emergence, the test was evaluated (100=total damage to plant; 0=no damage to plant).
(§2) Alopecurus myosuroides (ALOMY), Avena fatua (AVEFA), Setaria faberi (SETFA), Echinochloa crus-galli (ECHCG), Solanum nigrum (SOLNI) and Amaranthus retroflexus (AMARE)

[2] = system: Amaranthus retroflexus (AMARE); assay: as above; settings: 312 h, rate 250 g/ha, evaluated after 13 days, read-out: Pre-emergence activity AMARE (100=total damage to plant; 0=no damage to plant)
Protocol: as §1, §2

Setaria faberi (SETFA) [3] = assay: as above; settings: 312 h, rate 250 g/ha, evaluated after 13 days, read-out: Pre-emergence activity SETFA (100=total damage to plant; 0=no damage to plant)
Protocol: as §1, §2

Avena fatua (AVEFA) [4] = assay: as above; settings: 312 h, rate 250 g/ha, evaluated after 13 days, read-out: Pre-emergence activity AVEFA (100=total damage to plant; 0=no damage to plant)
Protocol: as §1, §2

[5] = system: Echinochloa crus-galli (ECHCG); assay: as above; settings: 312 h, rate 250 g/ha, evaluated after 13 days, read-out: Pre-emergence activity ECHCG (100=total damage to plant; 0=no damage to plant)
Protocol: as §1, §2

[6] = system: Alopecurus myosuroides (ALOMY); assay: Example B post-emergence herbicidal activity, glasshouse pot test; settings: 312 h, rate 250 g/ha, evaluated after 13 days, read-out: Post-emergence activity ALOMY (100=total damage to plant; 0=no damage to plant)
Protocol: as §1, §2

[7] = system: Amaranthus retroflexus (AMARE); assay: as above; settings: 312 h, rate 250 g/ha, evaluated after 13 days, read-out: Post-emergence activity AMARE (100=total damage to plant; 0=no damage to plant)
Protocol: as §1, §2

Setaria faberi (SETFA) [8] = assay: as above; settings: 312 h, rate 250 g/ha, evaluated after 13 days, read-out: Post-emergence activity SETFA (100=total damage to plant; 0=no damage to plant)
Protocol: as §1, §2

Avena fatua (AVEFA) [9] = assay: as above; settings: 312 h, rate 250 g/ha, evaluated after 13 days, read-out: Post-emergence activity AVEFA (100=total damage to plant; 0=no damage to plant)
Protocol: as §1, §2

[10] = system: Echinochloa crus-galli (ECHCG); assay: as above; settings: 312 h, rate 250 g/ha, evaluated after 13 days, read-out: Post-emergence activity ECHCG (100=total damage to plant; 0=no damage to plant)
Protocol: as §1, §2

Q: `CCc1ccc(-c2ccc(Cl)c(C(F)(F)F)c2)cc1C1=C(O)C(C)(C)OC(C)(C)C1=O` [Compound A-67] was tested. Which pest or weed control at 250 g/ha [1] did it give?
A: The pest or weed control at 250 g/ha was 40%.

Q: What about the pest or weed control at 250 g/ha [2] of the same molecule?
A: The pest or weed control at 250 g/ha was 0%.

Q: And the pest or weed control at 250 g/ha (Setaria faberi (SETFA) [3])?
A: Its pest or weed control at 250 g/ha is 90%.

Q: What about the pest or weed control at 250 g/ha (Avena fatua (AVEFA) [4]) of the same molecule?
A: Its pest or weed control at 250 g/ha is 0%.

Q: And the pest or weed control at 250 g/ha [5]?
A: Its pest or weed control at 250 g/ha is 60%.

Q: What about the pest or weed control at 250 g/ha [6] of the same molecule?
A: The pest or weed control at 250 g/ha was 80%.

Q: And the pest or weed control at 250 g/ha [7]?
A: Its pest or weed control at 250 g/ha is 100%.

Q: What about the pest or weed control at 250 g/ha (Setaria faberi (SETFA) [8]) of the same molecule?
A: The pest or weed control at 250 g/ha was 30%.

Q: What about the pest or weed control at 250 g/ha (Avena fatua (AVEFA) [9]) of the same molecule?
A: The pest or weed control at 250 g/ha was 80%.

Q: What about the pest or weed control at 250 g/ha [10] of the same molecule?
A: Its pest or weed control at 250 g/ha is 100%.

Q: Which results are given for `Cc1ccc(-c2ccc(Br)cc2)cc1C1=C(O)C(C)(C)OC(C)(C)C1=O` [Compound A-82]?
A: pest or weed control at 250 g/ha [1]: 80%; pest or weed control at 250 g/ha [2]: 20%; pest or weed control at 250 g/ha (Setaria faberi (SETFA) [3]): 90%; pest or weed control at 250 g/ha (Avena fatua (AVEFA) [4]): 90%; pest or weed control at 250 g/ha [5]: 100%; pest or weed control at 250 g/ha [6]: 100%; pest or weed control at 250 g/ha [7]: 0%; pest or weed control at 250 g/ha (Setaria faberi (SETFA) [8]): 100%; pest or weed control at 250 g/ha (Avena fatua (AVEFA) [9]): 100%; pest or weed control at 250 g/ha [10]: 100%

Q: What does the source list for `CCc1ccc(-c2ccc(Cl)nc2Cl)cc1C1=C(O)C(C)(C)OC(C)(C)C1=O` [Compound A-75]?
A: pest or weed control at 250 g/ha [1]: 30%; pest or weed control at 250 g/ha [2]: 0%; pest or weed control at 250 g/ha (Setaria faberi (SETFA) [3]): 90%; pest or weed control at 250 g/ha (Avena fatua (AVEFA) [4]): 30%; pest or weed control at 250 g/ha [5]: 90%; pest or weed control at 250 g/ha [6]: 90%; pest or weed control at 250 g/ha [7]: 0%; pest or weed control at 250 g/ha (Setaria faberi (SETFA) [8]): 100%; pest or weed control at 250 g/ha (Avena fatua (AVEFA) [9]): 90%; pest or weed control at 250 g/ha [10]: 100%

Q: What does the source list for `CCc1ccc(-c2ccc(Cl)c([N+](=O)[O-])c2)cc1C1=C(O)C(C)(C)OC(C)(C)C1=O` [Compound A-136]?
A: pest or weed control at 250 g/ha [1]: 20%; pest or weed control at 250 g/ha [2]: 0%; pest or weed control at 250 g/ha (Setaria faberi (SETFA) [3]): 30%; pest or weed control at 250 g/ha (Avena fatua (AVEFA) [4]): 80%; pest or weed control at 250 g/ha [5]: 90%; pest or weed control at 250 g/ha [6]: 80%; pest or weed control at 250 g/ha [7]: 0%; pest or weed control at 250 g/ha (Setaria faberi (SETFA) [8]): 70%; pest or weed control at 250 g/ha (Avena fatua (AVEFA) [9]): 100%; pest or weed control at 250 g/ha [10]: 100%

Q: For `CCc1ccc(-c2ccc(Cl)c(Cl)c2F)cc1C1=C(O)C(C)(C)OC(C)(C)C1=O` [Compound A-155], which pest or weed control at 250 g/ha [1] is on record?
A: Its pest or weed control at 250 g/ha is 50%.

Q: And the pest or weed control at 250 g/ha [2]?
A: Its pest or weed control at 250 g/ha is 0%.

Q: And the pest or weed control at 250 g/ha (Setaria faberi (SETFA) [3])?
A: The pest or weed control at 250 g/ha was 100%.

Q: And the pest or weed control at 250 g/ha (Avena fatua (AVEFA) [4])?
A: Its pest or weed control at 250 g/ha is 0%.

Q: What about the pest or weed control at 250 g/ha [5] of the same molecule?
A: Its pest or weed control at 250 g/ha is 100%.

Q: What about the pest or weed control at 250 g/ha [6] of the same molecule?
A: Its pest or weed control at 250 g/ha is 100%.

Q: And the pest or weed control at 250 g/ha [7]?
A: Its pest or weed control at 250 g/ha is 40%.

Q: What about the pest or weed control at 250 g/ha (Setaria faberi (SETFA) [8]) of the same molecule?
A: Its pest or weed control at 250 g/ha is 100%.

Q: And the pest or weed control at 250 g/ha (Avena fatua (AVEFA) [9])?
A: Its pest or weed control at 250 g/ha is 90%.

Q: What about the pest or weed control at 250 g/ha [10] of the same molecule?
A: The pest or weed control at 250 g/ha was 100%.

Q: With `CCC(=O)OC1=C(c2cc(-c3ccc(Cl)cc3Cl)ccc2CC)C(=O)C(C)(C)OC1(C)C` [Compound D-25] as the molecule, how does the pest or weed control at 250 g/ha [1] read?
A: The pest or weed control at 250 g/ha was 20%.

Q: And the pest or weed control at 250 g/ha [2]?
A: The pest or weed control at 250 g/ha was 0%.

Q: What about the pest or weed control at 250 g/ha (Setaria faberi (SETFA) [3]) of the same molecule?
A: Its pest or weed control at 250 g/ha is 90%.

Q: And the pest or weed control at 250 g/ha (Avena fatua (AVEFA) [4])?
A: Its pest or weed control at 250 g/ha is 0%.

Q: And the pest or weed control at 250 g/ha [5]?
A: The pest or weed control at 250 g/ha was 90%.

Q: What about the pest or weed control at 250 g/ha [6] of the same molecule?
A: Its pest or weed control at 250 g/ha is 0%.

Q: And the pest or weed control at 250 g/ha [7]?
A: The pest or weed control at 250 g/ha was 0%.

Q: What about the pest or weed control at 250 g/ha (Setaria faberi (SETFA) [8]) of the same molecule?
A: Its pest or weed control at 250 g/ha is 90%.

Q: And the pest or weed control at 250 g/ha (Avena fatua (AVEFA) [9])?
A: Its pest or weed control at 250 g/ha is 20%.

Q: What about the pest or weed control at 250 g/ha [10] of the same molecule?
A: The pest or weed control at 250 g/ha was 90%.

Q: Which pest or weed control at 250 g/ha [1] does the source give for `CCc1ccc(-c2ccc(Cl)cc2OC)cc1C1=C(O)C(C)(C)OC(C)(C)C1=O` [Compound A-65] here?
A: Its pest or weed control at 250 g/ha is 0%.

Q: And the pest or weed control at 250 g/ha [2]?
A: The pest or weed control at 250 g/ha was 0%.

Q: And the pest or weed control at 250 g/ha (Setaria faberi (SETFA) [3])?
A: The pest or weed control at 250 g/ha was 0%.

Q: What about the pest or weed control at 250 g/ha (Avena fatua (AVEFA) [4]) of the same molecule?
A: The pest or weed control at 250 g/ha was 0%.

Q: What about the pest or weed control at 250 g/ha [5] of the same molecule?
A: The pest or weed control at 250 g/ha was 90%.

Q: And the pest or weed control at 250 g/ha [6]?
A: Its pest or weed control at 250 g/ha is 20%.

Q: What about the pest or weed control at 250 g/ha [7] of the same molecule?
A: Its pest or weed control at 250 g/ha is 10%.

Q: And the pest or weed control at 250 g/ha (Setaria faberi (SETFA) [8])?
A: Its pest or weed control at 250 g/ha is 70%.

Q: And the pest or weed control at 250 g/ha (Avena fatua (AVEFA) [9])?
A: Its pest or weed control at 250 g/ha is 0%.

Q: And the pest or weed control at 250 g/ha [10]?
A: The pest or weed control at 250 g/ha was 90%.

Q: Which pest or weed control at 250 g/ha [1] does the source give for `CCc1ccc(-c2ccc(Cl)c(F)c2Cl)cc1C1=C(O)C(C)(C)OC(C)(C)C1=O` [Compound A-138] here?
A: The pest or weed control at 250 g/ha was 90%.

Q: What about the pest or weed control at 250 g/ha [2] of the same molecule?
A: Its pest or weed control at 250 g/ha is 20%.

Q: And the pest or weed control at 250 g/ha (Setaria faberi (SETFA) [3])?
A: Its pest or weed control at 250 g/ha is 100%.

Q: And the pest or weed control at 250 g/ha (Avena fatua (AVEFA) [4])?
A: The pest or weed control at 250 g/ha was 90%.

Q: What about the pest or weed control at 250 g/ha [5] of the same molecule?
A: The pest or weed control at 250 g/ha was 100%.

Q: And the pest or weed control at 250 g/ha [6]?
A: Its pest or weed control at 250 g/ha is 100%.

Q: What about the pest or weed control at 250 g/ha [7] of the same molecule?
A: Its pest or weed control at 250 g/ha is 60%.

Q: What about the pest or weed control at 250 g/ha (Setaria faberi (SETFA) [8]) of the same molecule?
A: The pest or weed control at 250 g/ha was 100%.

Q: And the pest or weed control at 250 g/ha (Avena fatua (AVEFA) [9])?
A: Its pest or weed control at 250 g/ha is 100%.

Q: And the pest or weed control at 250 g/ha [10]?
A: The pest or weed control at 250 g/ha was 100%.
